In patent US8993779B2, “Positive allosteric modulators of MGLUR2” (Merck Sharp & Dohme Corp., priority 2010, dated 2015):
Where two headings read alike, the source gives them in different places.

Target: T1, recombinant human mGluR2 (Homo sapiens, UniProt Q14416)
T1 construct: expressed in transfected cells
Assay: FLIPR Ca2+ mobilization assay, potentiation of mGluR2 receptor
Assay type: cell-based
Conditions: potentiation after EC20 glutamate (900 nM)
Experimental: Activity in potentiating the mGluR2 receptor may be determined as follows. The compounds of the present invention are tested in a fluorescence laser imaging plate reader (FLIPR) based assay. This assay is a common functional assay to monitor Ca^2+ mobilization in whole cells expressing recombinant receptor coupled with a promiscuous G-protein. CHO dhfr-cells stably expressing recombinant human mGluR2 and Gα16 loaded with Fluo-4 AM (Invitrogen, Carlsbad Calif.) are treated with dose responses of compounds and the Ca^2+ response is monitored on a FLIPR384 (Molecular Devices, Sunnydale Calif.) for agonist activity. The potentiation response is monitored after a subsequent addition of an EC20 concentration of glutamate (900 nM). The maximum calcium response at each concentration of compound for agonist or potentiation are plotted as dose responses and the curves are fitted with a four parameters logistic equation giving EC50 and Hill coefficient using the iterative non linear curve fitting software program.

[1] = CHO dhfr- cells expressing human mGluR2 and Gα16, read-out: FLIPR EC50
[2] = read-out: EC50 potentiating the mGluR2 receptor in the FLIPR assay

T1 sequence (Q14416 19-872): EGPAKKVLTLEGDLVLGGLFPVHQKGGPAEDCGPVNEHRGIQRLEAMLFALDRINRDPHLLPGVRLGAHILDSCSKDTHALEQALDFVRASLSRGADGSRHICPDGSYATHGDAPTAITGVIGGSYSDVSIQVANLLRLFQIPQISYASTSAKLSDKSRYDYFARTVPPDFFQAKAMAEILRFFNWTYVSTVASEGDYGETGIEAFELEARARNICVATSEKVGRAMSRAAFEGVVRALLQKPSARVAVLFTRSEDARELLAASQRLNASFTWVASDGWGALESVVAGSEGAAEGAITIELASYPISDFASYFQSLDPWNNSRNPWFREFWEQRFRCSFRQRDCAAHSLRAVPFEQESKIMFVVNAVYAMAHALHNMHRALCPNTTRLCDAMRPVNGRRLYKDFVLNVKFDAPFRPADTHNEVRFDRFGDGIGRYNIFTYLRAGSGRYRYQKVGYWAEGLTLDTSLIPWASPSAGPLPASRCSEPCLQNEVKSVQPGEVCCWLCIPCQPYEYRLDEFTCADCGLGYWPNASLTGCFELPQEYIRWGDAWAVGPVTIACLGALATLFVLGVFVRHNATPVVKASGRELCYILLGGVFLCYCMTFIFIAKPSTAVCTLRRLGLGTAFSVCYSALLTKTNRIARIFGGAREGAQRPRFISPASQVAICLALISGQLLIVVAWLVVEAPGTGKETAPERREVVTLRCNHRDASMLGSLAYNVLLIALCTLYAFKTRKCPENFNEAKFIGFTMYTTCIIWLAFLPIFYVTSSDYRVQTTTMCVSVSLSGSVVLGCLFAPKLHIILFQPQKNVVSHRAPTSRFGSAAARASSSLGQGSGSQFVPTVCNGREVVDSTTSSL

| Structure (SMILES) | EC50 [1] [nM] | EC50 [2] [nM] |
| --- | --- | --- |
| N#CCn1c(=O)n(CC2CC2)c2ccc(-c3ccccc3)cc21 [Example 1-9, [3-(cyclopropylmethyl)-2-oxo-6-phenyl-2,3-dihydro-1H-benzimidazol-1-yl]acetonitrile] | 264 | – |
| COc1ncc(-c2ccc3c(c2)n(C)c(=O)n3CC(C)(C)C)c(OC)n1 [Example 1-61, 5-(2,4-dimethoxypyrimidin-5-yl)-1-(2,2-dimethylpropyl)-3-methyl-1,3-dihydro-2H--benzimidazol-2-one] | 2660 | – |
| Cc1ccc(-c2ccc3c(c2)n(C)c(=O)n3CC(C)(C)C)c(C#N)c1 [Example 1-94, 2-[1-(2,2-dimethylpropyl)-3-methyl-2-oxo-2,3-dihydro-1H-benzimidazol-5-yl]-5-methylbenzonitrile] | 41 | – |
| Cn1c(=O)n(CC(C)(C)C)c2ccc(-c3ncccc3C(F)(F)F)cc21 [Example 1-148, 1-(2,2-dimethylpropyl)-3-methyl-5-[3-(trifluoromethyl)pyridin-2-yl]-1,3-dihydro-2H-benzimidazol-2-one] | 126 | – |
| Cn1c(=O)n(CC(C)(C)C)c2ccc(-c3ccc4c(c3)CN(C(=O)OC(C)(C)C)CC4)cc21 [Example 1-187, tert-butyl 7-[1-(2,2-dimethylpropyl)-3-methyl-2-oxo-2,3-dihydro-1H-benzimidazol-5-yl]-3,4-dihydroisoquinoline-2(1H)-carboxylate] | 182 | – |
| Cc1ccccc1-c1ccc2c(c1)n(C)c(=O)n2C1CCN(c2ncccn2)CC1 [Example 1-201, 3-methyl-5-(2-methylphenyl)-1-(1-pyrimidin-2-ylpiperidin-4-yl)-1,3-dihydro-2H-benzimidazol-2-one] | – | 12000 |
| Cc1ccccc1-c1ccc2c(c1)n(C)c(=O)n2C1CCNCC1 [Example 1-202, 3-methyl-5-(2-methylphenyl)-1-piperidin-4-yl-1,3-dihydro-2H-benzimidazol-2-one] | – | > 30000 |
| Cn1c(=O)n(C2CCNCC2)c2ccc(-c3ccccc3C(N)=O)cc21 [Example 1-203, 2-(3-methyl-2-oxo-1-piperidin-4-yl-2,3-dihydro-1H-benzimidazol-5-yl)benzamide] | – | > 30000 |
| Cc1ccccc1-c1ccc2c(c1)n(C)c(=O)n2C1CCN(C(=O)OC(C)(C)C)CC1 [Example 1-205, tert-butyl 4-[3-methyl-5-(2-methylphenyl)-2-oxo-2,3-dihydro-1H-benzimidazol-1-yl]piperidine-1-carboxylate] | – | > 30000 |
| Cn1c(=O)n(C2CCN(c3ncccn3)CC2)c2ccc(-c3ccccc3C(N)=O)cc21 [Example 1-206, 2-[3-methyl-2-oxo-1-(1-pyrimidin-2-ylpiperidin-4-yl)-2,3-dihydro-1H-benzimidazol-5-yl]benzamide] | – | 20000 |
| Cn1c(=O)n(CC(C)(C)C)c2ccc(-c3cccc(Oc4cc(C(F)(F)F)ccn4)c3)cc21 [Example 2-4, 1-(2,2-dimethylpropyl)-3-methyl-5-(3-{[4-(trifluoromethyl)pyridin-2-yl]oxy}phenyl)-1,3-dihydro-2H-benzimidazol-2-one] | 496 | – |
| Cn1c(=O)n(CC(C)(C)C)c2ccc(-c3cc(C#N)cc(Oc4ccnc(C#N)c4)c3)cc21 [Example 2-38, 4-{3-cyano-5-[1-(2,2-dimethylpropyl)-3-methyl-2-oxo-2,3-dihydro-1H-benzimidazol-5-yl]phenoxy}pyridine-2-carbonitrile] | 41 | – |
| Cn1c(=O)n(CC(C)(C)C)c2ccc(-c3cccc(OCc4ccccc4C(F)(F)F)c3)cc21 [Example 3-3, 1-(2,2-dimethylpropyl)-3-methyl-5-(3-{[2-(trifluoromethyl)benzyl]oxy}phenyl)-1,3-dihydro-2H-benzimidazol-2-one] | 3650 | – |

Second part, the molecule after the results:

| EC50 [1] [nM] | EC50 [2] [nM] | Structure (SMILES) |
| --- | --- | --- |
| 1250 | – | Cn1c(=O)n(CC(C)(C)C)c2ccc(-c3cccc(Oc4ccccc4)c3)cc21 [Example 4-8, 1-(2,2-dimethylpropyl)-3-methyl-5-(3-phenoxyphenyl)-1,3-dihydro-2H-benzimidazol-2-one] |
| 3350 | – | CN1CCCC(Oc2cccc(-c3ccc4c(c3)n(C)c(=O)n4CC(C)(C)C)n2)C1 (stereo not shown) [Example 5-12, 1-(2,2-dimethylpropyl)-3-methyl-5-{6-[(1-methylpiperidin-3-yl)oxy]pyridin-2-yl}-1,3-dihydro-2H-benzimidazol-2-one] |
| 364 | – | Cn1c(=O)n(CC(C)(C)C)c2ccc(-c3cncc(Oc4ccc(C#N)nc4)n3)cc21 [Example 5-22, 5-({6-[1-(2,2-dimethylpropyl)-3-methyl-2-oxo-2,3-dihydro-1H-benzimidazol-5-yl]pyrazin-2-yl}oxy)pyridine-2-carbonitrile] |
| 45 | – | Cn1c(=O)n(-c2cccc(C(F)(F)F)c2)c2ccc(-c3ccccc3C#N)cc21 [Example 6-9, 2-{3-methyl-2-oxo-1-[3-(trifluoromethyl)phenyl]-2,3-dihydro-1H-benzimidazol-5-yl}benzonitrile] |
| 781 | – | CN1CCN(c2ccc(-c3ccc4c(c3F)n(C)c(=O)n4CC3(C)CC3)cn2)CC1 [Example 7-19, 4-fluoro-3-methyl-1-[(1-methylcyclopropyl)methyl]-5-[6-(4-methylpiperazin-1-yl)pyridin-3-yl]-1,3-dihydro-2H-benzimidazol-2-one] |
| 77 | – | Cn1c(=O)n(CC2CC2)c2ccc(-c3ccncc3C(F)(F)F)c(F)c21 [Example 7-47, 1-(cyclopropylmethyl)-4-fluoro-3-methyl-5-[3-(trifluoromethyl)pyridin-4-yl]-1,3-dihydro-2H-benzimidazol-2-one] |
| 40 | – | Cn1c(=O)n(CC(C)(C)C)c2ccc(-c3cc(Oc4cccc(C#N)n4)ccc3C#N)c(F)c21 [Example 8-5, 6-{4-cyano-3-[1-(2,2-dimethylpropyl)-4-fluoro-3-methyl-2-oxo-2,3-dihydro-1H-benzimidazol-5-yl]phenoxy}pyridine-2-carbonitrile] |
| 129 | – | Cn1c(=O)n(CC(C)(C)C)c2ccc(-c3cccc(C(O)c4ccccc4)c3)cc21 (stereo not shown) [Example 10-3, 1-(2,2-dimethylpropyl)-5-{3-[hydroxy(phenyl)methyl]phenyl}-3-methyl-1,3-dihydro-2H-benzimidazol-2-one] |
| 225 | – | Cn1c(=O)n(CC(C)(C)C)c2ccc(-c3cccc(C(C)(O)c4ccccc4)n3)cc21 (stereo not shown) [Example 10-5, 1-(2,2-dimethylpropyl)-5-[6-(1-hydroxy-1-phenylethyl)pyridin-2-yl]-3-methyl-1,3-dihydro-2H-benzimidazol-2-one] |
